Assay results from ChEMBL document CHEMBL1177785, “Chemoselective regulation of TREK2 channel: activation by sulfonate chalcones and inhibition by sulfonamide chalcones” (Bioorg Med Chem Lett, 2010).

How the values were obtained:
[1] = target: T1, Potassium channel subfamily K member 10 (Rattus norvegicus, UniProt Q9JIS4); assay: Activation of rat TREK2 channel -mediated current expressed in HEK293 at 60 mV holding potential by patch clamp method; format: cell-based
T1 sequence (Q9JIS4 whole entry): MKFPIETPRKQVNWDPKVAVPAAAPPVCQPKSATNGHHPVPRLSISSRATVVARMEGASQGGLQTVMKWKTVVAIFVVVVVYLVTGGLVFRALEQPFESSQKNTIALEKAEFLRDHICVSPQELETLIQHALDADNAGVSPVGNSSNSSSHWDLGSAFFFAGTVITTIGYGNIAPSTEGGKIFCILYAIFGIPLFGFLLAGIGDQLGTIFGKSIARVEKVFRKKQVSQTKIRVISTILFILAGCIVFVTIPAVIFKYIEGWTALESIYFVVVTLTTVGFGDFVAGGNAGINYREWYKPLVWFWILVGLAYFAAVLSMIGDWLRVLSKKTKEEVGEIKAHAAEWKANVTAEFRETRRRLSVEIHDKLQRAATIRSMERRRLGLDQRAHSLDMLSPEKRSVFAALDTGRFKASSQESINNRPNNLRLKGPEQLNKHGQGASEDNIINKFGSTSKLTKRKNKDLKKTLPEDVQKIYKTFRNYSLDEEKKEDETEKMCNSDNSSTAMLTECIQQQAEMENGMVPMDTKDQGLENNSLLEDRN

[2] = target: T1, Potassium channel subfamily K member 10; assay: Inhibition of rat TREK2 channel -mediated current expressed in HEK293 at 60 mV holding potential by patch clamp method; format: cell-based

## Cc1ccc(S(=O)(=O)Oc2ccc(C(=O)/C=C/c3ccc(O)cc3)cc2)cc1
[1]
  EC50: 167 µM

## COc1ccc(/C=C/C(=O)c2ccc(NS(=O)(=O)c3ccc(C)cc3)cc2)cc1
[2]
  IC50: 100 µM

## Cc1ccc(S(=O)(=O)Nc2ccc(C(=O)/C=C/c3ccc(O)cc3)cc2)cc1
[2]
  IC50: 62 µM

## Cc1ccc(S(=O)(=O)Nc2ccc(C(=O)/C=C/c3ccccc3)cc2)cc1
[2]
  IC50: > 100 µM
